# Results: PubChem BioAssay AID296 (DTP/NCI, 2004)
# “And” between values parts separate entries of the source, which are not always exact repeats. Equal entries are not always repeated. Records with an inconclusive call do not appear.
# Test system: MX-1 breast xenograft, nude mice, tumor weight T/C
# Test: NCI In Vivo Anticancer Drug Screen. Data for tumor model Human Mammary Carcinoma MX-1 Xenograft (intrarenal inoculation) in NU/NU Swiss (nude) mice
# Conditions: endpoint: mean tumor weight change, higher = larger tumour
# Outline: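 Read-out: treated (T) over vehicle control (C) ratio of survival or tumor size. Dosing in animals carrying the transplanted tumor.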
# [1] = dose: 75.0 mg/kg/injection, schedule: Q04DX003 (sc), vehicle: saline with Tween-80
# [2] = dose: 150.0 mg/kg/injection, schedule: Q04DX003 (sc), vehicle: saline with Tween-80
# [3] = dose: 300.0 mg/kg/injection, schedule: Q04DX003 (sc), vehicle: saline with Tween-80
# [4] = dose: 600.0 mg/kg/injection, schedule: Q04DX003 (sc), vehicle: saline with Tween-80
# [5] = dose: 25.0 mg/kg/injection, schedule: Q01DX010 (sc), vehicle: saline
# [6] = dose: 600.0 mg/kg/injection, schedule: Q04DX003 (sc), vehicle: Klucel (hydroxypropylcellulose) (HPC)
# [7] = dose: 1200.0 mg/kg/injection, schedule: Q04DX003 (sc), vehicle: Klucel (hydroxypropylcellulose) (HPC)
# [8] = dose: 2400.0 mg/kg/injection, schedule: Q04DX003 (sc), vehicle: Klucel (hydroxypropylcellulose) (HPC)
# [9] = dose: 1200.0 mg/kg/injection, schedule: Q04DX003 (sc), vehicle: saline with Tween-80
# [10] = dose: 2400.0 mg/kg/injection, schedule: Q04DX003 (sc), vehicle: saline with Tween-80
compound,measurement,setting,value
C[C@H](N)C(=O)N[C@@H]1[C@H]2C(=C(O)C[C@@H](O)[C@@H]2O)C(=O)O[C@]1(C)C(Cl)Cl,T/C,"dose: 1.5 mg/kg/injection, schedule: Q04DX003 (sc), vehicle: Klucel (hydroxypropylcellulose) (HPC)",153 % of control
same,T/C,"dose: 6.0 mg/kg/injection, schedule: Q04DX003 (sc), vehicle: Klucel (hydroxypropylcellulose) (HPC)",92 % of control
CCCCCCCCCCCCCC#CC(=O)O,T/C,[1],87 % of control
same,T/C,[2],94 % of control
same,T/C,[3],92 % of control
same,T/C,[4],77 % of control
COc1ccc2c(NCCCCCCCCNc3c4ccccc4nc4cc(OC)ccc34)c3ccccc3nc2c1,T/C,"dose: 8.0 mg/kg/injection, schedule: Q04DX003 (sc), vehicle: suspension in saline",68 % of control
same,T/C,"dose: 16.0 mg/kg/injection, schedule: Q04DX003 (sc), vehicle: suspension in saline",78 % of control
same,T/C,"dose: 32.0 mg/kg/injection, schedule: Q04DX003 (sc), vehicle: suspension in saline",104 % of control
same,T/C,"dose: 64.0 mg/kg/injection, schedule: Q04DX003 (sc), vehicle: suspension in saline",92 % of control
CC1(O)CC23CC(O)C4(O)C(CC(O)C4(C)C)C(C)(O)C2CCC1C3O (stereo unspecified),T/C,"dose: 0.25 mg/kg/injection, schedule: Q04DX003 (sc), vehicle: Klucel (hydroxypropylcellulose) (HPC)",162 % of control
C[Si](C)(C)O/C=C1/CCOC1=O,T/C,"dose: 1200.0 mg/kg/injection, schedule: Q04DX003 (sc), vehicle: suspension in saline",105 % of control
same,T/C,"dose: 2400.0 mg/kg/injection, schedule: Q04DX003 (sc), vehicle: suspension in saline",157 % of control
Nc1cc2[nH]cnc2c(=O)[nH]1,T/C,[5],46 % of control
same,T/C,"dose: 50.0 mg/kg/injection, schedule: Q01DX010 (sc), vehicle: saline",-36 % of control
same,T/C,"dose: 50.0 mg/kg/injection, schedule: Q01DX010 (sc), vehicle: suspension in saline",9 % of control
same,T/C,"dose: 50.0 mg/kg/injection, schedule: Q04DX003 (sc), vehicle: suspension in saline",95 % of control
same,T/C,"dose: 100.0 mg/kg/injection, schedule: Q01DX010 (sc), vehicle: saline",-25 % of control and -11 % of control
same,T/C,"dose: 100.0 mg/kg/injection, schedule: Q01DX010 (sc), vehicle: suspension in saline",-28 % of control
same,T/C,"dose: 100.0 mg/kg/injection, schedule: Q04DX003 (sc), vehicle: suspension in saline",83 % of control and 100 % of control
same,T/C,"dose: 200.0 mg/kg/injection, schedule: Q01DX010 (sc), vehicle: saline",-31 % of control
same,T/C,"dose: 200.0 mg/kg/injection, schedule: Q01DX010 (sc), vehicle: suspension in saline",-89 % of control
same,T/C,"dose: 200.0 mg/kg/injection, schedule: Q04DX003 (sc), vehicle: suspension in saline",8 % of control and 31 % of control
same,T/C,"dose: 400.0 mg/kg/injection, schedule: Q04DX003 (sc), vehicle: suspension in saline",12 % of control and 18 % of control
same,T/C,"dose: 800.0 mg/kg/injection, schedule: Q04DX003 (sc), vehicle: suspension in saline",8 % of control
C[C@H]1C[C@@H]2[C@H]([C@@H](O)C[C@@]3(C)[C@H]2CC[C@]3(O)C(=O)CO)[C@@]2(C)C=CC(=O)C=C12,T/C,"dose: 200.0 mg/kg/injection, schedule: Q04DX003 (sc), vehicle: Klucel (hydroxypropylcellulose) (HPC)",33 % of control
same,T/C,"dose: 400.0 mg/kg/injection, schedule: Q04DX003 (sc), vehicle: Klucel (hydroxypropylcellulose) (HPC)",31 % of control
same,T/C,"dose: 800.0 mg/kg/injection, schedule: Q04DX003 (sc), vehicle: Klucel (hydroxypropylcellulose) (HPC)",30 % of control
same,T/C,"dose: 1600.0 mg/kg/injection, schedule: Q04DX003 (sc), vehicle: Klucel (hydroxypropylcellulose) (HPC)",13 % of control
CC(=O)OC(C)C1C2=C(C(=O)CC1(C)O)C(=O)c1c(ccc(-c3ccc4c(c3O)C(=O)C3=C(C4=O)C(C(C)OC(C)=O)C(C)(O)CC3=O)c1O)C2=O (stereo unspecified),T/C,"dose: 7.5 mg/kg/injection, schedule: Q04DX003 (sc), vehicle: saline with Tween-80",33 % of control
same,T/C,"dose: 30.0 mg/kg/injection, schedule: Q04DX003 (sc), vehicle: saline with Tween-80",98 % of control
same,T/C,"dose: 60.0 mg/kg/injection, schedule: Q04DX003 (sc), vehicle: saline with Tween-80",96 % of control
OCCOCCN1CCN(CCCN2c3ccccc3Sc3ccc(C(F)(F)F)cc32)CC1,T/C,"dose: 3.0 mg/kg/injection, schedule: Q01DX010 (sc), vehicle: saline",111 % of control
same,T/C,"dose: 24.0 mg/kg/injection, schedule: Q01DX010 (sc), vehicle: saline",41 % of control and 55 % of control
same,T/C,"dose: 48.0 mg/kg/injection, schedule: Q01DX010 (sc), vehicle: saline",39 % of control
C[Si](C)(C)OSc1ccccc1[N+](=O)[O-],T/C,"dose: 300.0 mg/kg/injection, schedule: Q04DX003 (sc), vehicle: Klucel (hydroxypropylcellulose) (HPC)",92 % of control
same,T/C,[6],95 % of control
same,T/C,[7],80 % of control
same,T/C,[8],107 % of control
CS(=O)(=O)Nc1ccc(C(=O)CCN2CCCCCC2)cc1,T/C,[2],101 % of control
same,T/C,[3],70 % of control
Cc1ccccc1SSc1ccccc1C,T/C,"dose: 200.0 mg/kg/injection, schedule: Q01DX010 (sc), vehicle: saline with Tween-80",88 % of control
same,T/C,"dose: 400.0 mg/kg/injection, schedule: Q01DX010 (sc), vehicle: saline with Tween-80",96 % of control
same,T/C,"dose: 800.0 mg/kg/injection, schedule: Q01DX010 (sc), vehicle: saline with Tween-80",91 % of control
CC1(C)COCN1COC1CCCCC1,T/C,"dose: 100.0 mg/kg/injection, schedule: Q04DX003 (sc), vehicle: saline",24 % of control
same,T/C,"dose: 200.0 mg/kg/injection, schedule: Q04DX003 (sc), vehicle: saline",32 % of control
same,T/C,"dose: 400.0 mg/kg/injection, schedule: Q04DX003 (sc), vehicle: saline",78 % of control
same,T/C,"dose: 800.0 mg/kg/injection, schedule: Q04DX003 (sc), vehicle: saline",56 % of control
COc1cc([C@@H]2c3cc4c(cc3[C@@H](OC3OC5COC(C)OC5C(O)C3O)[C@H]3COC(=O)[C@H]23)OCO4)cc(OC)c1O (stereo partly specified),T/C,"dose: 2.0 mg/kg/injection, schedule: Q01DX010 (sc), vehicle: saline",72 % of control
same,T/C,"dose: 4.0 mg/kg/injection, schedule: Q01DX010 (sc), vehicle: saline",97 % of control
same,T/C,"dose: 8.0 mg/kg/injection, schedule: Q01DX010 (sc), vehicle: saline",51 % of control
same,T/C,"dose: 16.0 mg/kg/injection, schedule: Q01DX010 (sc), vehicle: saline",72 % of control
Nc1nncs1,T/C,"dose: 3.13 mg/kg/injection, schedule: Q01DX010 (sc), vehicle: saline",92 % of control
same,T/C,"dose: 6.25 mg/kg/injection, schedule: Q01DX010 (sc), vehicle: saline",99 % of control
same,T/C,[5],86 % of control
O=c1[nH]c(=O)n(C2CC(O)C(CO)O2)cc1Br (stereo unspecified),T/C,[6],91 % of control
same,T/C,[7],80 % of control
same,T/C,[8],59 % of control
same,T/C,"dose: 4800.0 mg/kg/injection, schedule: Q04DX003 (sc), vehicle: Klucel (hydroxypropylcellulose) (HPC)",27 % of control
CS(=O)(=O)OCCCNCCCOS(C)(=O)=O,T/C,"dose: 18.75 mg/kg/injection, schedule: Q04DX003 (sc), vehicle: saline",61 % of control
same,T/C,"dose: 75.0 mg/kg/injection, schedule: Q04DX003 (sc), vehicle: saline",6 % of control and 7 % of control
same,T/C,"dose: 150.0 mg/kg/injection, schedule: Q04DX003 (sc), vehicle: saline",1 % of control
COCCCNC1=C(C#N)C(=O)NC(c2cccc([N+](=O)[O-])c2)S1 (stereo unspecified),T/C,[3],96 % of control
same,T/C,[4],101 % of control
same,T/C,[9],56 % of control
same,T/C,[10],95 % of control
CCCCCCCCSC1=C(Cl)C(=O)C(OC)=C(OC)C1=O,T/C,"dose: 36.0 mg/kg/injection, schedule: Q04DX003 (sc), vehicle: saline with Tween-80",113 % of control
same,T/C,"dose: 72.0 mg/kg/injection, schedule: Q04DX003 (sc), vehicle: saline with Tween-80",109 % of control
same,T/C,"dose: 144.0 mg/kg/injection, schedule: Q04DX003 (sc), vehicle: saline with Tween-80",90 % of control
CCCCc1ccc(-n2c(C)c(COC(=O)NC)c(COC(=O)NC)c2C)cc1,T/C,"dose: 12.5 mg/kg/injection, schedule: Q01DX010 (sc), vehicle: Klucel (hydroxypropylcellulose) (HPC)",114 % of control
same,T/C,"dose: 25.0 mg/kg/injection, schedule: Q01DX010 (sc), vehicle: Klucel (hydroxypropylcellulose) (HPC)",84 % of control
same,T/C,"dose: 50.0 mg/kg/injection, schedule: Q01DX010 (sc), vehicle: Klucel (hydroxypropylcellulose) (HPC)",34 % of control
same,T/C,"dose: 100.0 mg/kg/injection, schedule: Q01DX010 (sc), vehicle: Klucel (hydroxypropylcellulose) (HPC)",77 % of control
CC1(C)CC2(C)OC2C2(C1)N=NC(=Nc1ccccc1)O2 (stereo unspecified),T/C,[3],79 % of control
same,T/C,[4],81 % of control
same,T/C,[9],88 % of control
same,T/C,[10],81 % of control
Cn1c2ccccc2c2ccc3c(c21)C(=O)C=CC3=O,T/C,[1],62 % of control
same,T/C,[2],61 % of control
same,T/C,[3],117 % of control
same,T/C,[4],88 % of control
